Biological target: purified human Factor XIa (Homo sapiens (Human), UniProt P03951)
Assay: Factor XIa Assay
Format: biochemical
Settings: purified human Factor XIa 40 pM; substrate Z-Gly-Pro-Arg-AFC 100 μM; 50 mM HEPES pH 7.4; read-out: hFXIa Ki
Protocol: The rate of hydrolysis of the chromogenic or fluorogenic substrate by the relevant serine protease was measured both in the absence and presence of compounds of the present invention. Assays were conducted at room temperature or at 37° C. […] A decrease in the rate of fluorescence change in the presence of inhibitor is indicative of enzyme inhibition. […] The results of this assay are expressed as the inhibitory constant, Ki.
Factor XIa determinations were made in 50 mM HEPES buffer at pH 7.4 containing 150 mM NaCl, 5 mM CaCl2, and 0.1% PEG 8000 (polyethylene glycol; JT Baker or Fisher Scientific). Determinations were made using purified human Factor XIa at a final concentration of 40 pM (Sekisui Diagnostics) and the synthetic substrate, Z-Gly-Pro-Arg-AFC, TFA salt (Sigma #C0980) at a concentration of 100 μM.
Activity assays were performed by diluting a stock solution of substrate at least tenfold to a final concentration ≦0.1 Km into a solution containing enzyme or enzyme equilibrated with inhibitor. Times required to achieve equilibration between enzyme and inhibitor were determined in control experiments. Initial velocities of product formation in the absence (Vo) or presence of inhibitor (Vi) were measured. Assuming competitive inhibition, and that unity is negligible compared Km/[S], [I]/e, and [I]/e (where [S], [I], and e respectively represent the total concentrations, of substrate, inhibitor and enzyme), the equilibrium constant (Ki) for dissociation of the inhibitor from the enzyme can be obtained from the dependence of Vo/Vi on [I] shown in the following equation.

Chain of purified human Factor XIa (P03951 388-625): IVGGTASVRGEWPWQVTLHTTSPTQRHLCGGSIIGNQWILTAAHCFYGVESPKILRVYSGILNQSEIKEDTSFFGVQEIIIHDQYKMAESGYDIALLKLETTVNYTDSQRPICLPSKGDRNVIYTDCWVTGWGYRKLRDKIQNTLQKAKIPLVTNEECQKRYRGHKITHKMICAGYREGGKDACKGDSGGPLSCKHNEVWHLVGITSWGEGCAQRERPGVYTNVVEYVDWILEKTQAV
Chain of purified human Factor XIa (P03951 19-387 partner): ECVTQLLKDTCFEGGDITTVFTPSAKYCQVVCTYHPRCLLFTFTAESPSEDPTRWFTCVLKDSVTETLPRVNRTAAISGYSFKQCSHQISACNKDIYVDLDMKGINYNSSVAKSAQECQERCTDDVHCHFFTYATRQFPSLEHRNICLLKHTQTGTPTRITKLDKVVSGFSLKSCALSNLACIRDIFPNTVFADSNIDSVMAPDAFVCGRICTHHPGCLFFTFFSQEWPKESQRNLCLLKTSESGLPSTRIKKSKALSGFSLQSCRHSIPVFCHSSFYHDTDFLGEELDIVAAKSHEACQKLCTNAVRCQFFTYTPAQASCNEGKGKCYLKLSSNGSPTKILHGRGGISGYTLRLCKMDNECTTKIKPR

| Structure (SMILES) | Ki [µM] |
| --- | --- |
| CCOC(=O)Nc1ccc(NC(=O)C(Cc2ccccc2)n2ccc(-c3cc(Cl)ccc3[N+](=O)[O-])cc2=O)cc1 (centres unmarked) [Example 1Ag, ethyl (4-(2-(4-(5-chloro-2-nitrophenyl)-2-oxopyridin-1(2H)-yl)-3-phenylpropanamido)phenyl)carbamate] | 0.4 |
| COC(=O)Nc1ccc(CNC(=O)C(Cc2ccccc2)n2ccc(-c3cc(Cl)ccc3[N+](=O)[O-])cc2=O)cc1 (centres unmarked) [Example 1Al, methyl (4-((2-(4-(5-chloro-2-nitrophenyl)-2-oxopyridin-1(2H)-yl)-3-phenylpropanamido)methyl)phenyl)carbamate] | 0.34 |
| O=C(C(Cc1ccccc1)n1ccc(-c2cc(Cl)ccc2[N+](=O)[O-])cc1=O)N1CCC(N2CC[C@@H](O)C2)CC1 (stereo partly drawn) [Example 1Aw, 4-(5-chloro-2-nitrophenyl)-1-(1-(4-((R)-3-hydroxypyrrolidin-1-yl)piperidin-1-yl)-1-oxo-3-phenylpropan-2-yl)pyridin-2(1H)-one] | > 10 |
| O=C(O)c1ccc(NC(=O)[C@H](Cc2ccc(F)cc2)n2ccc(-c3cc(Cl)ccc3-n3cnnn3)cc2=O)cc1 [Example 1Ea, (S)-4-(2-(4-(5-chloro-2-(1H-tetrazol-1-yl)phenyl)-2-oxopyridin-1(2H)-yl)-3-(4-fluorophenyl)propanamido)benzoic acid] | 0.006 |
| O=C(O)c1ccc(NC(=O)[C@H](Cc2ccccc2)n2ccc(-c3cc(Cl)ccc3-n3cnnn3)cc2=O)cc1 [Example 1Ef, (S)-4-(2-(4-(5-chloro-2-(1H-tetrazol-1-yl)phenyl)-2-oxopyridin-1(2H)-yl)-3-phenylpropanamido)benzoic acid] | < 0.005 |
| O=C(O)c1ccc(NC(=O)[C@@H](Cc2ccccc2)n2ccc(-c3cc(Cl)ccc3-n3cnnn3)cc2=O)cc1 [Example 1Ff, (R)-4-(2-(4-(5-chloro-2-(1H-tetrazol-1-yl)phenyl)-2-oxopyridin-1(2H)-yl)-3-phenylpropanamido)benzoic acid] | 0.006 |
| O=C(O)c1ccc(NC(=O)C(Cc2ccccc2)n2ccc(-c3cnccc3Cl)cc2=O)cc1 (centres unmarked) [Example 2Af, 4-(2-(4-chloro-2′-oxo-[3,4′-bipyridin]-1′(2′H)-yl)-3-phenylpropanamido)benzoic acid] | 7.75 |
| N=C(N)c1ccc(-c2ccn(C(Cc3ccccc3)C(=O)Nc3ccc(C(=O)O)cc3)c(=O)c2)cc1 (centres unmarked) [Example 2d, 4-(2-(4-(4-carbamimidoylphenyl)-2-oxopyridin-1(2H)-yl)-3-phenylpropanamido)benzoic acid] | 0.37 |
| O=C(O)c1ccc2[nH]c([C@H](Cc3ccc(F)cc3)n3ccc(-c4cc(Cl)ccc4-n4cnnn4)cc3=O)nc2c1 [Example 3Bd, (S)-2-(1-(4-(5-chloro-2-(1H-tetrazol-1-yl)phenyl)-2-oxopyridin-1(2H)-yl)-2-(4-fluorophenyl)ethyl)-1H-benzo[d]imidazole-5-carboxylic acid] | < 0.005 |
| O=C(O)c1ccc2[nH]c([C@H](Cc3ccccc3)n3ccc(-c4cc(Cl)ccc4-n4cnnn4)cc3=O)nc2c1 [Example 3g, (S)-2-(1-(4-(5-chloro-2-(1H-tetrazol-1-yl)phenyl)-2-oxopyridin-1(2H)-yl)-2-phenylethyl)-1H-benzo[d]imidazole-5-carboxylic acid] | < 0.005 |
| O=c1cc(-c2cc(Cl)ccc2-n2cnnn2)ccn1C(Cc1ccccc1)c1nc(-c2cccnc2)c[nH]1 (centres unmarked) [Example 4Aa, 4-(5-chloro-2-(1H-tetrazol-1-yl)phenyl)-1-(2-phenyl-1-(4-(pyridin-3-yl)-1H-imidazol-2-yl)ethyl)pyridin-2(1H)-one] | < 0.005 |
| O=c1cc(-c2cc(Cl)ccc2-n2cnnn2)ccn1C(Cc1ccc(F)cc1)c1nc(-c2ccc(F)cc2)c[nH]1 (centres unmarked) [Example 4Af, 4-(5-chloro-2-(1H-tetrazol-1-yl)phenyl)-1-(2-(4-fluorophenyl)-1-(4-(4-fluorophenyl)-1H-imidazol-2-yl)ethyl)pyridin-2(1H)-one] | 0.154 |
| N#Cc1ccc(-c2cnc([C@@H](Cc3ccc(F)cc3)n3ccc(-c4cc(Cl)ccc4-n4cnnn4)cc3=O)[nH]2)cc1 [Example 4Cl, (R)-4-(2-(1-(4-(5-chloro-2-(1H-tetrazol-1-yl)phenyl)-2-oxopyridin-1(2H)-yl)-2-(4-fluorophenyl)ethyl)-1H-imidazol-5-yl)benzonitrile] | < 0.005 |
| O=c1cc(-c2cc(Cl)ccc2-n2cnnn2)ccn1[C@@H](Cc1ccc(F)cc1)c1nc2cc(P(=O)(O)O)ccc2[nH]1 [Example 5b, (S)-(2-(1-(4-(5-chloro-2-(1H-tetrazol-1-yl)phenyl)-2-oxopyridin-1(2H)-yl)-2-(4-fluorophenyl)ethyl)-1H-benzo[d]imidazol-5-yl)phosphonic acid] | < 0.005 |
